The values that follow come from patent publication US3954227A, “Pharmaceutical compositions containing 1-(2',3'-dimethylphenoxy)-3-tert. butylamino-2-propanol or pharmaceutically acceptable salt thereof for treating or preventing coronary disorders” (Teikoku Hormone Mfg. Co., Ltd., priority 1969, dated 1976).

Entries after “also recorded” stand apart in the source; their conditions may differ. Read-outs that look alike come from different tables or passages of the source.

The conditions of series [1]: oral; cited from earlier work.
The subject of the next series is angina pectoris patients. The experiment in a line: Clinical test: bicycle ergometer exercise test in angina pectoris patients, double blind cross over. The series is classed as in vivo, human. As to conditions: for Change in heart rate b)-a) / Exercise time / a) Heart rate before exercise / b) Heart rate after exercise: compound A 5 mg twice daily, PROPRANOLOL 40 mg × 2, third day; for b) Heart rate after exercise: in beats/min (unit assumed). The arrangement: Change in heart rate b)-a): unit not given here. Here is the method:
A test was then conducted on the third day 3 hours after the first administration. […] The test was carried out by the double blind method with a cross over test having a rest period of 10 days. The test method consisted of an exercise test utilizing a bicycle ergometer. After measuring the heart rates of the patients before starting the test, the patients were made to pedal the bicycle ergometer until they were seized with an attack of anginal pain, the effectiveness of the chemicals being judged by the time up to the attack and the heart rate at that time.

Series [2] concerns mouse. The experiment in a line: Behavior analysis, mouse (simplified Irwin's multidimensional method). As to conditions: 4 hours observation.
Description: (§1) The effects of chemicals on the behavior of mouse was examined by a simplified method of Irwin's multidimensional behavior analysis method.
The test system of series [3] is rat. As to the kind of experiment: Behavior analysis, rat. As to conditions: 4 hours observation.
Protocol: (§2) The chemical to be tested was administered orally, and observations of the behaviors of the rats were carried out for 4 hours after administration of the chemical.
One group consisted of three rats.
The test system of series [4] is heart rate. As to the kind of experiment: Effect on heart rate (general statements). It is filed as in vivo.
Series [5] relates to beta-adrenergic (heart rate increase due to ISOPROTERENOL). The experiment in a line: Beta-adrenergic blocking activity in the case of intravenous injection, rat (antagonism to heart rate increase due to ISOPROTERENOL). The series is classed as in vivo, rat (Wistar). Here is the method:
1. Beta-adrenergic blocking activity in the case of intravenous injection (Antagonism to heart rate increase due to ISOPROTERENOL)
a. Male rats of Wistar strain weighing ca. 300 grams were anesthetized with PENTOBARBITAL-Na (60 mg/kg i.p.), after which they are secured in a supine position. The electrocardiogram was registered in the second lead, on a polygraph. ISOPROTERENOL (0.1 μg/kg) was administered through the left femoral vein at 7-minute intervals.
The heart rate increase for the first two times was averaged and used as control.
The antagonistic chemical was intravenously injected from the third time the ISOPROTERENOL was administered, the administration being performed cumulatively and sequentially in the amounts of respectively 6.25, 25, 100 . . . μg/kg invariably at a point 2 minutes before each administration of ISOPROTERENOL until the effects thereof practically disappeared.

The conditions of series [6]: in vivo.
The subject of series [7] is dog. The experiment in a line: Degree of safety (ratio of side reaction or lethal dosage to effective dosage), dog. As to conditions: in vivo, po.
Series [8] relates to dog. As to conditions: orally.
In series [9] the test system is rat. As to conditions: orally.
For series [10], the system named is rat. As to conditions: in vivo, 240 min.
Protocol: as §2
One group consisted of three rats.
Series [11] relates to heart rate. The experiment in a line: Heart rate drop at the dosage required for manifestation of beta-adrenergic blocking activity, rat. It is filed as in vivo.
The subject of series [12] is rat. As to the kind of experiment: Degree of safety (ratio of side reaction or lethal dosage to effective dosage), rat. As to conditions: in vivo, po.
In series [13] the test system is mouse. As to conditions: in vivo, 240 min.
Description: as §1
The subject of series [14] is heart rate. As to the kind of experiment: Heart rate drop at the dosage required for manifestation of beta-adrenergic blocking activity, dog. The series is classed as in vivo.
A further series concerns beta-adrenergic. The experiment in a line: Beta-adrenergic blocking activity of metabolites (Table 2). The series is classed as in vivo. As to conditions: for Beta-adrenergic blocking activity compared with PROPRANOLOL, in words: in vivo.
The test system of series [15] is heart rate. The experiment in a line: Change in heart rate at the dosage required for manifestation of the beta-adrenergic blocking activity (Table 2). The series is classed as in vivo.

As for `CC(C)NCC(O)COc1cccc2ccccc12` (stereo not shown) [PROPRANOLOL, 1-naphthoxy-3-isopropylamino-2-propanol, reference compound], the “Metabolized when orally administered” value in [1] was 90%. In addition, the “Change in heart rate b)-a)” value with angina pectoris patients (Case No. 1) came out at 35; in the series on angina pectoris patients (Case No. 2), 27; in the series on angina pectoris patients (Case No. 3) it was 27; in the series on angina pectoris patients (Mean of 3 cases) it was 29.7. The Exercise time in the series with angina pectoris patients (Case No. 1) came to 134 s; in the series with angina pectoris patients (Case No. 2) it was 146 s; in the series on angina pectoris patients (Case No. 3) it was 102 s; in the series with angina pectoris patients (Mean of 3 cases), 127.3 s. The a) Heart rate before exercise in the series on angina pectoris patients (Case No. 1) amounted to 74 beats/min; in the series on angina pectoris patients (Case No. 2) it was 69 beats/min; in the series on angina pectoris patients (Case No. 3) it was 75 beats/min; in the series on angina pectoris patients (Mean of 3 cases), 72.7 beats/min. For the same compound, the “b) Heart rate after exercise” value with angina pectoris patients (Case No. 1) is recorded as 109; in the series with angina pectoris patients (Case No. 2) it was 96; in the series with angina pectoris patients (Case No. 3), 102; with angina pectoris patients (Mean of 3 cases) it was 102.3. Besides, the “Suppression of the heart rate vs placebo, in words” value in the series on angina pectoris patients (as compared with the placebo) is “marked suppression of the heart rate”. The “Dose at which effects appeared from the standpoints of behavior analysis (PO)” value in the series on mouse [2] came out at 100 mg; in the series on rat [3], 25 mg.
As for `Cc1cccc(OCC(O)CNC(C)(C)C)c1C` (stereo not shown) [compound A, 1-(2',3'-dimethylphenoxy)-3-tert. butylamino-2-propanol], the “Effect on heart rate, in words” value is recorded as “high decrease in heart rate; also recorded: a drop in heart rate likewise takes place” in the series with heart rate [4] (injection) and “the normal heart rate is hardly affected at all; also recorded: practically no change in heart rate; also recorded: without hardly any effect on the heart rate” with heart rate [4] (oral / intestinal absorption route). For the same compound, the “Relative effectiveness iv (beta-adrenergic blocking activity, PROPRANOLOL = 1.0)” value in series [5] was determined as 2. Further, the “Degree of safety compared with the other similar compounds” value in [6] is reported as 7-20 times. Also, the “Degree of safety, times that of PROPRANOLOL” value in the series with dog [7] is listed as “more than 16 times”; with rat [12], “about 14 times”. Also, the LD50 was 300 mg in the series on dog [8] and 580 mg in the series with rat [9]. In addition, the “Dose at which effects appeared from the standpoints of behavior analysis (PO)” value came to 50 mg in the series on rat [10] and 200 mg with mouse [13]. The “Heart rate % drop at the dosage required for manifestation of beta-adrenergic blocking activity [ED50]” value in the series on heart rate [11] (PO) is 4%; in the series with heart rate [11] (iv), 15%; with heart rate [14] (PO), 2%; in the series with heart rate [14] (iv) it was 16%. Besides, the “Heart rate drop at the dosage required for manifestation of beta-adrenergic blocking activity [ED50]” value with heart rate [11] (PO) came out at 15 No/min; in the series on heart rate [11] (iv), 55 No/min; in the series with heart rate [14] (PO), 3 No/min; in the series with heart rate [14] (iv), 23 No/min. Moreover, the “Change in heart rate b)-a)” value in the series on angina pectoris patients (Case No. 1) is 17; with angina pectoris patients (Case No. 2), 20; with angina pectoris patients (Case No. 3), 19; with angina pectoris patients (Mean of 3 cases) it was 18.7. Also, the Exercise time with angina pectoris patients (Case No. 1) was 187 s; in the series on angina pectoris patients (Case No. 2) it was 203 s; in the series on angina pectoris patients (Case No. 3), 144 s; in the series with angina pectoris patients (Mean of 3 cases) it was 178.0 s. The a) Heart rate before exercise stood at 81 beats/min in the series on angina pectoris patients (Case No. 1), 76 beats/min in the series with angina pectoris patients (Case No. 2), 84 beats/min in the series on angina pectoris patients (Case No. 3) and 80.3 beats/min in the series with angina pectoris patients (Mean of 3 cases). The “b) Heart rate after exercise” value came out at 98 in the series with angina pectoris patients (Case No. 1), 96 in the series with angina pectoris patients (Case No. 2), 103 in the series on angina pectoris patients (Case No. 3) and 99.0 in the series with angina pectoris patients (Mean of 3 cases). Moreover, in the series on angina pectoris patients (as compared with the placebo), the “Exercise time up to attack with anginal pains vs placebo, in words” value is given as “increases the exercise time up to the time the attack with anginal pains takes place”. The “Increase in the heart rate due to the exercise vs placebo, in words” value with angina pectoris patients (as compared with the placebo) is recorded as “suppresses the increase in the heart rate due to the exercise”. For the same compound, the “Suppression of the heart rate vs placebo, in words” value with angina pectoris patients (as compared with the placebo) is “practically no suppression of the heart rate”. Also, in the series with angina pectoris patients (human, in vivo), the “Effectiveness compared with PROPRANOLOL, in words” value is “far greater than that of PROPRANOLOL”.
In the case of `Cc1c(O)ccc(OCC(O)CNC(C)(C)C)c1C` (stereo not shown) [compound B], the “Relative beta-adrenergic blocking effectiveness as compared to PROPRANOLOL” value in the series on beta-adrenergic (i.v.) is recorded as 5.5; in the series with beta-adrenergic (p.o.), 2.5. Also, the “Beta-adrenergic blocking activity compared with PROPRANOLOL, in words” value in the series with beta-adrenergic is on record as “higher beta-adrenergic blocking activity than PROPRANOLOL”. The “Action of suppressing the heart rate compared with PROPRANOLOL, in words” value in the series with heart rate [15] (in vivo) was “lower action of suppressing the heart rate and lesser side reactions”. The “Change in heart rate at the dosage required for manifestation of the beta-adrenergic blocking activity” value in the series on heart rate [15] (in vivo) is given as “+10 No./min”. For the same compound, the “Change in heart rate, % increase, at the dosage required for manifestation of the beta-adrenergic blocking activity” value in the series with heart rate [15] (increase) worked out at 3%. Also, the “Change in heart rate by injection, in words” value in the series on heart rate [15] is reported as “small”.
`Cc1c(CO)cccc1OCC(O)CNC(C)(C)C` (stereo not shown) [compound C]: the “Relative beta-adrenergic blocking effectiveness as compared to PROPRANOLOL” value in the series on beta-adrenergic (i.v.) came to 4.5; in the series on beta-adrenergic (p.o.) it was 4.0. In addition, the “Beta-adrenergic blocking activity compared with PROPRANOLOL, in words” value with beta-adrenergic is listed as “higher beta-adrenergic blocking activity than PROPRANOLOL”. Besides, the “Action of suppressing the heart rate compared with PROPRANOLOL, in words” value in the series with heart rate [15] (in vivo) was “lower action of suppressing the heart rate and lesser side reactions”. For the same compound, in the series on heart rate [15], the “Change in heart rate by injection, in words” value is on record as “small”.
